# Laboratory results from publication PMC8319882 (Drugs in R&D, 2021).
# Tested on: SARS-CoV-2 spike protein binding to ACE2
sequence,measurement,value
FLDKFNHNFKDLF [13AApi],Inhibition of interaction between SARS-CoV-2 spike and immobilized ACE2,Greater than 40%
